Consider two compounds from patent US10650228B2, “Devices and methods for analyzing animal behavior” (Children's Medical Center Corporation, priority 2015, dated 2020).

In experiment [1] the test system is mice. Put plainly: FTIR-generated paw luminance after intraplantar injection of capsaicin to the left hind paw. The settings on record: 180 minutes after intraplantar injection (5 μl, 0.1%) to the left hind paw; FIG. 14B. The experiment is classed as in vivo. As to the method:
FIG. 14C illustrates that the luminance values of left and right hind paws are no different in naïve mice 0-30 minutes after being placed in chamber.

Experiment [2] concerns mouse. Put plainly: FTIR imaging of weight bearing after experimental induction of inflammatory pain in the left hind paw. The format is in vivo. The conditions noted are these: mouse with induced inflammation in left hind paw, analgesic given before FTIR imaging; FIG. 8 at right. The text has this:
FIG. 8 illustrates examples of FTIR recordings that detect analgesic efficacy, with great sensitivity. […] For example, the FTIR images are brighter in areas where there is greater relative pressure exerted by the hind paw than in areas where there is less relative pressure exerted.

Take `COc1cc(CNC(=O)CCCC/C=C/C(C)C)ccc1O` [capsaicin]: in experiment [1], the “FTIR paw luminance (weight bearing), uninjured right vs injected left hind paw” value is on record as “significantly increased luminance (weight bearing) in the uninjured (right) paw compared to the capsaicin-injected left paw”.

Turning to `O=C(O)Cc1ccccc1Nc1c(Cl)cccc1Cl` [diclofenac], in experiment [2], the “weight shift to the uninjured leg (FTIR imaging, analgesic efficacy)” value is “does not shift its weight to the uninjured leg”.
